The source of these data is US6825317B2, “Cyclic tetrapeptide derivatives and pharmaceutical uses thereof” (Sumitomo Pharmaceuticals Company, Limited, priority 1999, dated 2004).

The structures appear in SMILES notation. Non-standard residues stand in square brackets, D forms with d. Residues, ends and D or L forms follow the SMILES beside them. ξ: configuration not given here. *: point of attachment. Asu = N[C@@H](CCCCCC(=O)O)C(=O)O; Cha = N[C@@H](CC1CCCCC1)C(=O)O; Ile(3ξ) = CCC(C)[C@H](N)C(=O)O; dCha = N[C@H](CC1CCCCC1)C(=O)O; Aic = NC1(C(=O)O)Cc2ccccc2C1; Ac8c = NC1(C(=O)O)CCCCCCC1; Ac7c = NC1(C(=O)O)CCCCCC1; Pip = O=C(O)[C@@H]1CCCCN1; dPip = O=C(O)[C@H]1CCCCN1; Ac6c = NC1(C(=O)O)CCCCC1; Ac5c = NC1(C(=O)O)CCCC1; Aib = CC(C)(N)C(=O)O; NHOH = ON*

Test [1] relates to MHC class-I molecule expression on B16/BL6 cells. In words: MHC class-I molecule expression-promoting activity. The class given is cell-based, mouse. As to conditions: concentration giving twice-promoted MHC class-I expression relative to untreated control, 72 hours culture with compound. As for the experimental part: The cyclic tetrapeptide derivatives of the present invention were investigated for their MHC class-I molecule expression-promoting actions in the following test.
The cancer cells used were mouse melanoma, B16/BL6 cells, provided by the National Cancer Institute, U.S.A. Said cells were cultured in MEM media supplemented with 10% FBS at 37° C., 5% CO2 in an humidified incubator.
A compound to be tested was preliminarily dissolved in dimethylsulfoxide (DMSO) and adjusted to a concentration of 100 mM or 10 mM (stock solution). […] Trichostatin A was used as a positive control compound for MHC class-I molecule expression-promoting action due to histone deacetylase enzyme-inhibiting activity. DMSO used as a solvent for the stock solution of a test compound would inevitably be introduced into the medium in the test; however, it had been separately confirmed not to affect the test results in amounts within the range used in the test.
Said B16/BL6 cells were inoculated on a 96-well microplate at a cell density of 5000 cells per well, each well containing 200 μAl of said medium. After culturing for 24 hours, 10 μl of a sample containing a given amount of the stock solution of a test compound which had been diluted in the medium was added and cultured for additional 72 hours. Thereafter, each well was washed once with PBS (phosphate buffered saline) and floating cells and the medium were removed. Then, the well was treated with 0.1% glutaraldehyde solution for 3 minutes to fix the cells.
The amount of MHC class-I molecule expressed on the surface of the fixed cells was measured as follows. Anti-H-2K^bD^bD^d antibody, which is an antibody against mouse MHC class-I molecule (commercially available from Meiji Milk Co., Ltd), was used as a primary antibody, biotinylated anti-mouse IgG+M (commercially available from Chemicon) was used as a secondary antibody, and streptavidin-galactosidase conjugate (commercially available from BRL) was reacted as a labeling enzyme. The amount of the thus labeled enzyme-galactosidase was measured in a microplate reader by recording the fluorescent intensity (excitation: 365 nm, fluorescence: 450 nm) resulting from the enzyme reaction product using 4-methylumbelliferyl-D-galactoside (commercially available from Nacalai Tesque) as a substrate. A fluorescence intensity measured for another well to which no test compound was added and which was treated in a similar manner without adding said primary antibody was used as a background level. The value obtained by subtracting said background level from the actually measured value (an apparent value including the background level) was defined as a true measurement reflecting the amount of expressed MHC class-I molecule.
A group without the addition of any test compound was used as a control group and the measurement of MHC class-I molecule expressed in said group was used as a standard value. The amount of MHC class-I molecule expressed at an addition concentration of each test compound was shown as a relative amount based on said standard value set to one (1). The strength of each test compound activity was compared at a concentration which provides twice-promoted expression (C×2).

For test [2], the system named is histone deacetylase partially purified from B16/BL6 cells. The experiment in a line: Inhibitory activity against histone deacetylase enzyme. The class given is biochemical, mouse. As to conditions: crude enzyme from B16/BL6 cells, [3H]acetylated histone H4 peptide substrate, 37 for 3 hours; read-out: 50% inhibitory concentration. As for the experimental part: The preparation of histone deacetylase was performed essentially according to the method of Yoshida et al. (J. Biol. Chem., 265, 17174-17179, 1990). The enzyme to be used was partially purified from B16/BL6 cells. The cells were suspended in HDA buffer (15 mM potassium phosphate, 5% glycerol, 0.2 mM EDTA, 1 mM 2-mercaptoethanol, pH 7.5), homogenized and centrifuged (2500× g, 10 min) to collect the nuclei, which were then homogenized in the same buffer containing 1 M (NH4)2SO4. After ultrasonic disruption and centrifugation, the concentration of (NH4)2SO4 in the collected supernatant was increased to 3.5 M to precipitate histone deacetylase. This precipitate was re-dissolved in HDA buffer, subjected to gel filtration to replace the solvent by HDA buffer, and used as a crude histone deacetylase enzyme solution.
As a substrate, a synthetic substrate peptide, [^3H]acetylated histone H4 peptide was used. This [^3H]acetylated histone H4 peptide was obtained by synthesizing the N-terminal peptide of histone H4; […] (SEQ ID NO: 1: the C-terminal being cysteine) and then radioactively acetylating with ^3H-acetic anhydride.
An assay was performed by incubating the synthetic substrate solution and the enzyme solution at 37 for 3 hours in the presence of a compound to be tested (reaction volume, 100 μl). The reaction was stopped by adding 25 μl of 1 M HCl and 0.2 M acetic acid, and [^3H]acetate cleaved by the enzyme reaction was extracted with ethyl acetate for radioactivity measurement. For a control group, the same procedure was repeated without addition of any test compound to the reaction system. Each test compound was evaluated for a concentration required to cause 50% inhibition of the histone deacetylase enzyme activity in the control group (50% inhibitory concentration).

On to `O=C(CCCCC[C@@H]1NC(=O)[C@H]2CCCCN2C(=O)[C@H](Cc2ccccc2)NC(=O)C2(CCCCCCC2)NC1=O)NO` [CHAP90, cyclo(-L-Asu(NHOH)-Acc8-L-Phe-D-Pip-)] (cyclo([Asu](NHOH)[Ac8c]F[dPip])), for which, in test [1], the “Twice promoting concentration Cx2” value was determined as 3.96 nM. Moreover, in test [2], the IC50 came to 2.75 nM.

With `CC1(C)NC(=O)[C@H](CCCCCC(=O)NO)NC(=O)[C@H]2CCCN2C(=O)[C@H](Cc2ccccc2)NC1=O` [CHAP15, cyclo(-L-Asu(NHOH)-Aib-L-Phe-D-Pro-), reference compound] (cyclo([Aib]F[dP][Asu](NHOH))), the “Twice promoting concentration Cx2” value in test [1] worked out at 33.2 nM. Besides, in test [2], the IC50 was 5.17 nM.

In the case of `O=C(CCCCC[C@@H]1NC(=O)[C@H]2CCCN2C(=O)[C@H](Cc2ccccc2)NC(=O)C2(CCCCCC2)NC1=O)NO` [CHAP71, cyclo(-L-Asu(NHOH)-Acc7-L-Phe-D-Pro-)] (cyclo([Asu](NHOH)[Ac7c]F[dP])), the “Twice promoting concentration Cx2” value in test [1] amounted to 2.76 nM. Also, the IC50 in test [2] is 2.14 nM.

For `CC[C@H](C)[C@@H]1NC(=O)[C@@H](CC2CCCCC2)NC(=O)[C@H](CCCCCC(=O)NO)NC(=O)[C@H]2CCCCN2C1=O` [CHAP86, cyclo(-L-Asu(NHOH)-D-Cha-L-Ile-D-Pip-)] (cyclo([Asu](NHOH)[dCha]I[dPip])), the “Twice promoting concentration Cx2” value in test [1] was found to be 3.29 nM. Also, the IC50 in test [2] was found to be 3.14 nM.

In the case of `CC(C)C[C@@H]1NC(=O)[C@@H](CC2CCCCC2)NC(=O)[C@H](CCCCCC(=O)NO)NC(=O)[C@H]2CCCCN2C1=O` [CHAP85, cyclo(-L-Asu(NHOH)-D-Cha-L-Leu-D-Pip-)] (cyclo([Asu](NHOH)[dCha]L[dPip])), the “Twice promoting concentration Cx2” value in test [1] worked out at 2.26 nM. Also, the IC50 in test [2] was found to be 1.96 nM.

Consider `O=C(CCCCC[C@@H]1NC(=O)[C@H]2CCCN2C(=O)[C@H](Cc2ccccc2)NC(=O)C2(CCCC2)NC1=O)NO` [CHAP54, cyclo(-L-Asu(NHOH)-Acc5-L-Phe-D-Pro-)] (cyclo([Ac5c]F[dP][Asu](NHOH))), for which, in test [1], the “Twice promoting concentration Cx2” value was determined as 5.67 nM. The IC50 in test [2] worked out at 3.02 nM.

On to `CCC(C)[C@@H]1NC(=O)[C@@H](CC2CCCCC2)NC(=O)[C@H](CCCCCC(=O)NO)NC(=O)[C@@H]2CCCCN2C1=O` (stereo partly drawn) [CHAP87, cyclo(-L-Asu(NHOH)-D-Cha-L-Ile-L-Pip-)] (cyclo([Asu](NHOH)[dCha][Ile(3ξ)][Pip])), for which, in test [1], the “Twice promoting concentration Cx2” value amounted to 5.39 nM. Also, in test [2], the IC50 was 1.98 nM.

As to `O=C(CCCCC[C@@H]1NC(=O)[C@H]2CCCCN2C(=O)[C@H](CC2CCCCC2)NC(=O)[C@@H](CC2CCCCC2)NC1=O)NO` [CHAP79, cyclo(-L-Asu(NHOH)-D-Cha-L-Cha-D-Pip-)] (cyclo([Asu](NHOH)[dCha][Cha][dPip])), in test [1], the “Twice promoting concentration Cx2” value turned out to be 2.79 nM. In addition, in test [2], the IC50 is 3.9 nM.

On to `O=C(CCCCC[C@@H]1NC(=O)[C@H]2CCCN2C(=O)[C@H](Cc2ccccc2)NC(=O)C2(Cc3ccccc3C2)NC1=O)NO` [CHAP81, cyclo(-L-Asu(NHOH)-2Ain-L-Phe-D-Pro-)] (cyclo([Aic]F[dP][Asu](NHOH))), for which the “Twice promoting concentration Cx2” value in test [1] is 1.29 nM. The IC50 in test [2] turned out to be 0.98 nM.

For `O=C(CCCCC[C@@H]1NC(=O)[C@H]2CCCCN2C(=O)[C@H](Cc2ccccc2)NC(=O)C2(Cc3ccccc3C2)NC1=O)NO` [CHAP91, cyclo(-L-Asu(NHOH)-2Ain-L-Phe-D-Pip-)] (cyclo([Aic]F[dPip][Asu](NHOH))), the “Twice promoting concentration Cx2” value in test [1] turned out to be 2.48 nM. Further, the IC50 in test [2] is 1.2 nM.

For the molecule `O=C(CCCCC[C@@H]1NC(=O)[C@H]2CCCN2C(=O)[C@H](Cc2ccccc2)NC(=O)C2(CCCCCCC2)NC1=O)NO` [CHAP76, cyclo(-L-Asu(NHOH)-Acc8-L-Phe-D-Pro-)] (cyclo([Asu](NHOH)[Ac8c]F[dP])), the “Twice promoting concentration Cx2” value in test [1] was found to be 1.88 nM. Also, in test [2], the IC50 turned out to be 3.99 nM.

For the molecule `O=C(CCCCC[C@@H]1NC(=O)[C@@H]2CCCCN2C(=O)[C@H](CC2CCCCC2)NC(=O)[C@@H](CC2CCCCC2)NC1=O)NO` [CHAP78, cyclo(-L-Asu(NHOH)-D-Cha-L-Cha-L-Pip-)] (cyclo([Asu](NHOH)[dCha][Cha][Pip])), the “Twice promoting concentration Cx2” value in test [1] came out at 2.35 nM. The IC50 in test [2] is 3.88 nM.

For `O=C(CCCCC[C@@H]1NC(=O)[C@H]2CCCN2C(=O)[C@H](Cc2ccccc2)NC(=O)C2(CCCCC2)NC1=O)NO` [CHAP55, cyclo(-L-Asu(N-HOH)-Acc6-L-Phe-D-Pro-)] (cyclo([Ac6c]F[dP][Asu](NHOH))), the “Twice promoting concentration Cx2” value in test [1] is 5.38 nM. For the same molecule, the IC50 in test [2] came out at 2.19 nM.

As to `CC(C)C[C@@H]1NC(=O)[C@@H](CC2CCCCC2)NC(=O)[C@H](CCCCCC(=O)NO)NC(=O)[C@@H]2CCCCN2C1=O` [CHAP84, cyclo(-L-Asu(NHOH)-D-Cha-L-Leu-L-Pip-)] (cyclo([Asu](NHOH)[dCha]L[Pip])), in test [1], the “Twice promoting concentration Cx2” value was found to be 5.65 nM. The IC50 in test [2] is 2.22 nM.

For the molecule `O=C(CCCCC[C@@H]1NC(=O)[C@H]2CCCN2C(=O)[C@H](Cc2ccccc2)NC(=O)C2(CCc3ccccc32)NC1=O)NO` (single isomer, unassigned) [CHAP83, cyclo(-L-Asu(NHOH)-1Ain(s)-L-Phe-D-Pro-)], the “Twice promoting concentration Cx2” value in test [1] amounted to 2.29 nM. Besides, the IC50 in test [2] stood at 1.95 nM.

In the case of `O=C(CCCCC[C@@H]1NC(=O)[C@H]2CCCN2C(=O)[C@H](Cc2ccccc2)NC(=O)C2(CCc3ccccc32)NC1=O)NO` (single isomer, unassigned) [CHAP82, cyclo(-L-Asu(NHOH)-1Ain(f)-L-Phe-D-Pro-)], the “Twice promoting concentration Cx2” value in test [1] worked out at 2.69 nM. In addition, in test [2], the IC50 turned out to be 1.12 nM.
